Assay results as given in patent publication US10695330B2, “Methods of treatment” (Global Blood Therapeutics, Inc., priority 2015, dated 2020).

Columns and labels:
[1] = system: healthy mice subjected to extreme hypoxia; test: Tolerance to hypoxia mouse model: systemic parameters, tissue hypoxia, survival; assay type: in vivo; settings: for survival: after 1.5 hours of exposure to 5% O2 hypoxia
Procedure: (§1) Male, C57BL mice were fitted with a dorsal skinfold window chamber for direct visualization of an intact microvascular bed (Yalcin & Cabrales 2012). After the window chamber was implanted, the animals were left to recover for at least 2 days, before undergoing surgery a second time for arterial (carotid) catheter implantation (PESO tubing). After two day of recovery, mice were dosed orally with Compound 1 (70 or 140 mg/kg) or vehicle only and Hb O2 affinity was determined by hemoximetry. Two hours post dose, conscious mice were placed in a restraining tube with a longitudinal slit from which the protruding window chamber provided a microscopic stage for observation. In this setup, gas flow rate (0.2 L/min) into the tube is diffused by a cotton filter barrier. Baseline measurements for normoxia (21% O2) were completed within an hour of restraining mice. The animals were then exposed to stepwise hypoxia by decreasing the O2 concentration to 15, 10 and 5%. Animals were kept at each hypoxic level for 30 min. Mice were allowed 15 min of acclimatization at each new hypoxic level before measurements were taken. During hypoxia, changes in systemic and microvascular hemodynamics, blood gases, blood lactate, tissue partial pressure of O2 (PO2), tissue hypoxia and tolerance to hypoxia were evaluated. At each time point, mice with adequate systolic blood pressure (BP) were counted as survived and mice with severe hypotension (BP≤60 mmHg) were counted as non-survived and were euthanized.
MAP (mean arterial pressure) and heart rate (HR) were recorded continuously from Carotid catheter. Hct was measured from centrifuged arterial blood samples taken in heparinized capillary tubes. Arterial blood was collected in heparinized glass capillaries (50 μL) and immediately analyzed for PO2, PCO2, base excess, and pH. Arterial Hb saturations were measured using a CO-Oximeter.
High resolution non-invasive microvascular PO2 measurements were made using phosphorescence quenching microscopy (PQM). Tissue PO2 was measured in regions in between functional capillaries (Yalcin & Cabrales 2012). Hb O2 saturations in the microcirculation are calculated using the O2 equilibrium curves measured.
Tissue hypoxia was studied via immunohistochemistry staining for pimonidazole bound to hypoxic zones in vital tissues. Mice received a bolus intraperitoneal injection (IP) injection of the hypoxic marker Hypoxyprobe-1 (pimonidazole 40 mg/kg) and 5 mg/kg Hoechst 33342 diluted in PBS (total volume, 100 μL). At the end of the study, mice were euthanized and tissues extracted for histology. Sections are stained with monoclonal antibody against pimonidazole. Images for pimonidazole antibody-stained areas and Hoechst were recorded. Results are reported as the ratio of pimonidazole stained area to the total cellular area by co-localization of pimonidazole and Hoechst.

Hb = target: T1, Hb (Mus musculus, UniProt P01942); test: Tolerance to hypoxia mouse model: PK/PD (Hb occupancy, hemoximetry of blood from dosed mice); assay type: in vivo; settings: healthy mice
T1 construct: from tissue; host or cells: whole blood (red blood cells) of dosed C57BL / C57BL/6J mice
T1 sequence (P01942 2-142 limits assumed): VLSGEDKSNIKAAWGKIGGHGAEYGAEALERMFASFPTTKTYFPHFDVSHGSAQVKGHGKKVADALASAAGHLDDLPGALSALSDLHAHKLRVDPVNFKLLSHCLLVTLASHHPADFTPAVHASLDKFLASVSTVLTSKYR
T1 sequence (P02088 2-147 partner limits assumed): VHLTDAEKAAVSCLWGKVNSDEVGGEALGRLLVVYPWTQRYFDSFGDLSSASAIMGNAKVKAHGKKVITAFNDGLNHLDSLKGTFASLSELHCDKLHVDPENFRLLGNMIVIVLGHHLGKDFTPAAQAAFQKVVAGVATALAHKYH
Procedure: as §1
Oxygen equilibrium curves for mice blood were obtained by deoxygenation of O2-equilibrated samples in a Hemox buffer at 37° C., using a Hemox Analyzer (TCS Scientific Corporation, New Hope, Pa.). […] The absorbance at wavelengths that correspond to the isosbestic point (570 nm) and deoxy Hb (560 nm) was recorded as a function of the sample O2 tension (pO2). During deoxygenation, the pO2 and percent O2 saturation values were collected to obtain the OECs and the p50 values (partial pressure of O2 at which Hb is 50% saturated with O2). p50 values were calculated using a non-linear regression analysis. […]

O=Cc1c(O)cccc1OC[C@@H]1CCCCN1C(=O)c1cccnc1 [Compound 1, (S)-2-hydroxy-6-((1-nicotinoylpiperidin-2-yl)methoxy)benzaldehyde]
survival ([1]; 70 mg/kg): 16%
survival ([1]; 140 mg/kg): 83%
arterial blood pH ([1]; during 10% and 5% O2 hypoxia): normal during hypoxia
arterial blood oxygen saturation (SaO2) ([1]; during hypoxia, 70 or 140 mg/kg oral, vs control): dose-dependently increased SaO2 relative to control
heart rate (HR) ([1]; during hypoxia, vs control): sustained higher
mean arterial pressure (MAP) ([1]; during hypoxia, vs control): sustained higher mean BP
blood lactate levels ([1]; extreme hypoxia (5% O2), vs control): reduced lactate levels relative to control
hypoxic tissues positively stained by pimonidazole ([1]; extreme hypoxia, vs control): reduced hypoxic tissues positively stained by pimonidazole relative to control
arterial blood partial pressure of O2 (PaO2) ([1]; stepwise hypoxia, 70 or 140 mg/kg oral): the PaO2 was the same in Compound 1-treated and control mice
calculated Hb occupancy (Hb; 70 mg/kg oral): ~30%
calculated Hb occupancy (Hb; 140 mg/kg oral): ~60%
Hb O2 affinity (left-shift in the OEC) in whole blood from dosed mice (Hb; 70 or 140 mg/kg oral, vs vehicle): dose-dependent increase in Hb O2 affinity relative to control
